Measured values published in ChEMBL document CHEMBL1157003, “'Novel alkyl side chain sulfone 1alpha,25-dihydroxyvitamin D3 analogs: a comparison of in vitro antiproliferative activities and in vivo calcemic activities'” (2009).
Active and inactive are the calls of the source. No cut-off for these calls is given here.

Experiments:
Rattus norvegicus = assay: Inhibition of calciuria in rat at 10 ug/kg, po administered qd for 1 week; format: functional, organism-based
[1] = Antiproliferative activity against mouse keratinocytes at 10 nM relative to calcitrol; format: functional, Keratinocyte
Keratinocyte = assay: Antiproliferative activity against mouse keratinocytes; format: functional, cell-based

Row | Structure (SMILES) | inhibition (Rattus norvegicus) | Ratio [1] | Activity (Keratinocyte)
1 | C=C1/C(=C\C=C2/CCC[C@]3(C)[C@@H]([C@H](C)CCCC(C)(C)O)CC[C@@H]23)C[C@@H](O)C[C@@H]1O | Active |  | 
2 | C=C1/C(=C\C=C2/CCC[C@]3(C)C([C@H](C)CCCS(=O)(=O)C(F)(F)F)=CC[C@@H]23)C[C@@H](O)C[C@@H]1O | Active | 2 | 
3 | C=C1/C(=C\C=C2/CCC[C@]3(C)C([C@H](C)CCCS(C)(=O)=O)=CC[C@@H]23)C[C@@H](O)C[C@@H]1O | Active |  | Active
4 | C=C1/C(=C\C=C2/CCC[C@]3(C)C([C@H](C)CCCS(=O)(=O)C(C)C)=CC[C@@H]23)C[C@@H](O)C[C@@H]1O | Active |  | Active
